Measured values as given in publication PMC3934494 (Chemistry & biology, 2013).
Like-named read-outs stand apart in the source and are kept apart here.

Assays:
Microsomal stability [1] = type: in vitro ADME; conditions: human microsomes
Microsomal stability [2] = type: in vitro ADME; conditions: rat microsomes
WT clade B virus = test: PhenoSense HIV antiviral assay; type: cell-based
[3] = test system: 12 patient-derived drug resistant viruses; test: PhenoSense HIV antiviral assay; type: cell-based
[4] = molecular target: HIV-1 protease variant M3: I50V/A71V (Human immunodeficiency virus type 1 group M subtype B, UniProt P04585, A559V/I538V); test: FRET-based enzymatic assay, enzyme inhibition constants; type: biochemical; conditions: M3 versus WT protease
WT HIV-1 protease = WT HIV-1 protease (Human immunodeficiency virus type 1 group M subtype B, UniProt P04585); conditions: FDA-approved drugs, ref Nalam, et al., 2010; cited from earlier work

SMILES | Microsomal Stability (Avg. % Fraction Remaining) at 30 Minutes Human (Microsomal stability [1]; RTV +) [%] | Microsomal Stability (Avg. % Fraction Remaining) at 30 Minutes Human (Microsomal stability [1]; RTV −) [%] | Microsomal Stability (Avg. % Fraction Remaining) at 60 Minutes Human (Microsomal stability [1]; RTV +) [%] | Microsomal Stability (Avg. % Fraction Remaining) at 60 Minutes Human (Microsomal stability [1]; RTV −) [%] | Microsomal CLint Human (Microsomal stability [1]; RTV +) [μL min^-1 mg^1] | Microsomal T1/2 Human (Microsomal stability [1]; RTV +) [min] | Microsomal CLint Human (Microsomal stability [1]; RTV −) [μL min^-1 mg^1] | Microsomal T1/2 Human (Microsomal stability [1]; RTV −) [min] | Microsomal Stability (Avg. % Fraction Remaining) at 30 Minutes Rat (Microsomal stability [2]; RTV +) [%] | Microsomal Stability (Avg. % Fraction Remaining) at 30 Minutes Rat (Microsomal stability [2]; RTV −) [%] | Microsomal Stability (Avg. % Fraction Remaining) at 60 Minutes Rat (Microsomal stability [2]; RTV +) [%] | Microsomal Stability (Avg. % Fraction Remaining) at 60 Minutes Rat (Microsomal stability [2]; RTV −) [%] | Microsomal CLint Rat (Microsomal stability [2]; RTV +) [μL min^-1 mg^1] | Microsomal T1/2 Rat (Microsomal stability [2]; RTV +) [min] | Microsomal CLint Rat (Microsomal stability [2]; RTV −) [μL min^-1 mg^1] | Microsomal T1/2 Rat (Microsomal stability [2]; RTV −) [min] | EC50 (WT clade B virus; WT clade B virus) | also measured
CC[C@H](C)CN(C[C@@H](O)[C@H](Cc1ccccc1)NC(=O)O[C@H]1CO[C@H]2OCC[C@H]21)S(=O)(=O)c1ccc(N)cc1 [10a] | 81 | 42 | 66 | 19 | 21 | 99 | 81 | 26 | 51 | 24 | 35 | 9 | 67 | 31 | 129 | 16 |  | 
CC[C@H](C)CN(C[C@@H](O)[C@H](Cc1ccccc1)NC(=O)O[C@H]1CO[C@H]2OCC[C@H]21)S(=O)(=O)c1ccc(OC)cc1 [10b] | 79 | 0 | 68 | 0 | 19 | 110 | 776 | 3 | 0 | 0 | 0 | 0 | 518 | 4 | 885 | 2 | more potent | EC50 ([3]; read-out: average EC50, average against 12 different drug resistant strains): 1330 pM
CC[C@H](C)CN(C[C@@H](O)[C@H](Cc1ccccc1)NC(=O)O[C@H]1CO[C@H]2OCC[C@H]21)S(=O)(=O)c1ccc(CO)cc1 [10c] | 93 | 0 | 89 | 0 | 8 | >180 | 590 | 4 | 45 | 0 | 22 | 0 | 79 | 26 | 664 | 3 |  | 
CC[C@H](C)CN(C[C@@H](O)[C@H](Cc1ccccc1)NC(=O)O[C@H]1CO[C@H]2OCC[C@H]21)S(=O)(=O)c1ccc2c(c1)OCO2 [10d] | 80 | 9 | 60 | 4 | 24 | 85 | 232 | 9 | 0 | 0 | 0 | 0 | 771 | 3 | 987 | 2 | more potent | 
CCC(CC)CN(C[C@@H](O)[C@H](Cc1ccccc1)NC(=O)O[C@H]1CO[C@H]2OCC[C@H]21)S(=O)(=O)c1ccc(OC)cc1 [11b] | 75 | 0 | 66 | 0 | 23 | 90 | 844 | 2 | 50 | 18 | 20 | 19 | 74 | 28 | 150 | 14 | more potent | 
CCC(CC)CN(C[C@@H](O)[C@H](Cc1ccccc1)NC(=O)O[C@H]1CO[C@H]2OCC[C@H]21)S(=O)(=O)c1ccc(CO)cc1 [11c] | 64 | 0 | 69 | 0 | 26 | 81 | 829 | 3 | 79 | 0 | 57 | 0 | 27 | 78 | 907 | 2 |  | 
CCC(CC)CN(C[C@@H](O)[C@H](Cc1ccccc1)NC(=O)O[C@H]1CO[C@H]2OCC[C@H]21)S(=O)(=O)c1ccc2c(c1)OCO2 [11d] | 55 | 0 | 46 | 0 | 46 | 45 | 617 | 3 | 21 | 0 | 4 | 0 | 156 | 13 | 712 | 3 |  | 
CC(C)CN(C[C@@H](O)[C@H](Cc1ccccc1)NC(=O)O[C@H]1CO[C@H]2OCC[C@H]21)S(=O)(=O)c1ccc(N)cc1 [DRV, Darunavir] |  |  |  |  |  |  |  |  |  |  |  |  |  |  |  |  |  | EC50 (WT clade B virus): 400 pM; EC50 ([3]; Human immunodeficiency virus 1, read-out: average EC50): 5980 pM; antiviral potency ([3]; MDR strains with the I50V protease mutation): loses significant potency; decrease in M3 susceptibility compared to WT protease [4]: 50 fold
Cc1cccc(C)c1OCC(=O)N[C@@H](Cc1ccccc1)[C@@H](O)C[C@H](Cc1ccccc1)NC(=O)[C@H](C(C)C)N1CCCNC1=O [LPV] |  |  |  |  |  |  |  |  |  |  |  |  |  |  |  |  |  | Ki (WT HIV-1 protease): 5 pM
